Data set [1] can be described thus: Solubility test in distilled water. The data set is classed as physicochemical. The conditions noted are these: 10 mg/ml.
The subject of data set [2] is 5α reductase. The data set is described as follows: Effect on 5α reductase activity: testosterone reacted with liver cell extracts, testosterone and DHT by HPLC. It is filed as biochemical. Particulars: 1 hour at 37° C. The method, then:
The reactant of putting the liver cell extracts in testosterone and reacting it for 1 hour at 37° C. is the control. After the reaction is completed, the amount of testosterone and DHT were confirmed through HPLC. The HPLC analysis was carried out under the following conditions. • C18 column • UV 240 nm • flow rate: 1 mi/minute • mobile phase: A: 0.1% Formic acid in water • B: 0.1% Formic acid in acetonitrile • gradient: 0 min B 5%˜30 min B 80%

As for `CC(C)(C)NC(=O)[C@H]1CC[C@H]2[C@@H]3CC[C@H]4NC(=O)C=C[C@]4(C)[C@H]3CC[C@]12C` [finasteride, N-(1,1-dimethylethyl)-3-oxo-(5α,17β)-4-azaandrost-1-ene-17-carboxamide], in data set [1], the solubility in water result is recorded as “hardly dissolved in water”. For the same compound, in data set [2], the “concentration of DHT compared with the control” value is listed as “decreased” and the “concentration of testosterone compared with the control” value is “increased”.

The values are drawn from patent US11357783B2 (CAREGEN CO., LTD., priority 2016, dated 2022).
